According to ChEMBL document CHEMBL1125668, “Synthesis and anti-HIV activity of 2-, 3-, and 4-substituted analogues of 1-[(2-hydroxyethoxy)methyl]-6-(phenylthio)thymine (HEPT)” (J Med Chem, 1991):

Columns and labels:
[1] = test system: Human immunodeficiency virus 2; experiment: Inhibitory activity against HIV-2(LAV-2ROD strain) replication in MT-4 cells; format: functional, organism-based; conditions: Human immunodeficiency virus 2, MT4
[2] = test system: Human immunodeficiency virus 1; experiment: Inhibitory activity against HIV-1 (HTLV-IIIB strain) replication in MT-4 cells; format: functional, organism-based; conditions: Human immunodeficiency virus 1, MT4
[3] = test system: Human immunodeficiency virus 1; experiment: Cytotoxic concentration of compound required to reduce the viability of mock infected MT-4 cells against the HIV-1 (HTLV-IIIB)induced cytopathic effect; format: functional; conditions: Human immunodeficiency virus 1, MT4
[4] = test system: Human immunodeficiency virus 1; experiment: Cytotoxic concentration of compound required to incorporate [5-3H]-Urd into RNA of mock infected peripheral blood lymphocytes in HIV-1 (HTLV-IIIB)by 50%; format: functional
[5] = test system: Human immunodeficiency virus 2; experiment: Inhibitory activity against HIV-2(LAV-2EHO strain) replication in MT-4 cells; format: functional, organism-based; conditions: Human immunodeficiency virus 2, MT4
[6] = test system: Human immunodeficiency virus 1; experiment: Inhibitory activity against HIV-1 (HTLV-IIIRF strain) replication in MT-4 cells; format: functional, organism-based; conditions: Human immunodeficiency virus 1, MT4
[7] = test system: Human immunodeficiency virus 1; experiment: Inhibitory activity against HIV-1 (HTLV-IIIB strain) replication in peripheral blood lymphocytes; format: functional, organism-based

Row | EC50 [2] | Structure (SMILES) | EC50 [1] | CC50 [3] | CC50 [4] | EC50 [5] | EC50 [6] | EC50 [7]
1 | 6.3 µM | Nc1ncnc2c1ncn2[C@H]1CC[C@@H](CO)O1 | 7.2 µM | > 500 µM | – | – | – | –
2 | > 198 µM | O=c1cc(Sc2ccccc2)n(COCCO)c(=S)[nH]1 | – | 198 µM | – | – | – | –
3 | > 250 µM | Nc1cc(Sc2ccccc2)n(COCCO)c(=O)n1 | – | > 250 µM | – | – | – | –
4 | > 27 µM | Cc1c(Sc2ccccc2)n(COCCO)c(=O)[nH]c1=S | – | 27 µM | – | – | – | –
5 | > 374 µM | Cc1c(Sc2ccccc2)n(COCCO)c(=O)n(C)c1=O | – | > 374 µM | – | – | – | –
6 | > 40 µM | Cc1c(Sc2ccccc2)n(COCCO)c(=O)n(Cc2ccccc2)c1=O | – | 40 µM | – | – | – | –
7 | > 91 µM | Cc1c(N)nc(=O)n(COCCO)c1Sc1ccccc1 | – | 91 µM | – | – | – | –
8 | > 4.1 µM | O=c1[nH]c(=S)cc(Sc2ccccc2)n1COCCO | – | 4.1 µM | – | – | – | –
9 | 0.98 µM | Cc1c(Sc2ccccc2)n(COCCO)c(=S)[nH]c1=O | > 100 µM | 123 µM | 292 µM | > 100 µM | 2.5 µM | 2.9 µM

Row | Structure (SMILES) | EC50 [2] | EC50 [1] | CC50 [3] | CC50 [4] | EC50 [5] | EC50 [6] | EC50 [7]
10 | Cc1c(Sc2ccccc2)n(COCCO)c(=O)[nH]c1=O [HEPT] | 7 µM | > 250 µM | 740 µM | 640 µM | > 250 µM | 8.1 µM | 7.9 µM
11 | Cc1cn([C@H]2C[C@H](N=[N+]=[N-])[C@@H](CO)O2)c(=O)[nH]c1=O [ZIDOVUDINE] | 0.003 µM | 0.0028 µM | 7.8 µM | – | – | – | –
